Experimental data published in patent US10407423B2, “Compounds as inhibitors of DNA methyltransferases” (FUNDACIÓN PARA LA INVESTIGACIÓN MÉDICA APLICADA, priority 2015, dated 2019).

Columns and labels:
[1] = molecular target: human G9a enzyme (Homo sapiens (Human), UniProt Q96KQ7); assay: G9a enzyme activity assay (TR-FRET); type: biochemical; settings: 1 hour at room temperature
Procedure: G9a Enzyme Activity Assay
The biochemical assay to measure G9a enzyme activity relies on time-resolved fluorescence energy transfer (TR-FRET) between europium cryptate (donor) and XL665 (acceptor). TR-FRET is observed when biotinylated histone monomethyl-H3K9 peptide is incubated with cryptate-labeled anti-dimethyl-histone H3K9 antibody (CisBio Cat#61KB2KAE) and streptavidin XL665 (CisBio Cat#610SAXLA), after enzymatic reaction of G9a.
The human G9a enzyme expressed in a baculovirus infected Sf9 cell expression system was obtained from BPS Biosciences (Cat. #51001). Enzyme activity assay was carried out in a white 384-well plate in a final volume of 20 μl, as follow: • 4 μl of vehicle or studied compound 2.5× concentrated prepared in assay buffer (50 mM Tris-HCl, 10 mM NaCl, 4 mM DTT, 0.01% Tween-20 pH9). Final percentage of DMSO was 0.5%. • 2 μl of 1 nM G9a enzyme diluted in assay buffer. Final concentration was 0.2 nM. • Start the reaction by adding 4 μl of substrate mixture containing 20 μM S-adenosylmethionine and 40 nM biotinylated histone monomethyl-H3K9 peptide. • Reaction was carried out during 1 hour at room temperature. • Enzyme activity was stopped by adding 5 μl of cryptate-labeled anti-dimethyl-histone H3K9 antibody. Final concentration 150 nM. • Then, add 5 μl of streptavidin XL665 beads. Final concentration of 16 μM. • Read the plate after 1 hour of incubation at room temperature.
(§1) For each well, fluorescence was measured at 620 nm and 665 nm. A ratio (665 nm/620 nm) was then calculated in order to minimize medium interferences. Positive control was obtained in the presence of the vehicle of the compounds. Negative control was obtained in the absence of G9a enzyme activity. Calculated IC50 values were determined using GraphPrism using 4-parameters inhibition curve.

[2] = molecular target: human DNMT1 (Homo sapiens (Human), UniProt P26358); assay: DNMT1 enzyme activity assay (TR-FRET, EPIgeneous methyltransferase assay); type: biochemical; settings: 15 minutes at 37° C.
Procedure: DNMT1 Enzyme Activity Assay
The biochemical assay to measure DNMT1 enzyme activity relies on time-resolved fluorescence energy transfer (TR-FRET) between lumi4-Tb (donor) and d2 (acceptor) using the EPlgeneous methyltransferase assay (CisBio Cat#62SAHPEB). TR-FRET is observed when antibody specific to S-adenosylhomocysteine labeled with Lumi4-Tb is incubated with d2-labeled S-adenosylhomocysteine. TR-FRET signal is inversely proportional to the concentration of SAH, product of DNMT1 enzyme activity, in the sample. The human DNMT1 was obtained from Reaction Biology Corp. (Cat# DMT-21-124).
Enzyme activity assay was carried out in a white 384-well plate in a final volume of 20 μl, as follow: • 4 μl of vehicle or studied compound 2.5× concentrated prepared in assay buffer (50 mM Tris-HCl, 1 mM EDTA, 1 mM DTT, 0.1% Triton X-100, 5% glycerol pH 7.5). Final percentage of DMSO was 0.5%. • 2 μl of […] DNMT1 enzyme diluted in assay buffer. Final concentration was 20 nM. • Start the reaction by adding 4 μl of substrate mixture containing 1 μM S-adenosylmethionine and 1 μM poly-deoxy inosine poly-deoxy cytosine (pdI-pdC) DNA. • Reaction was carried out during 15 minutes at 37° C. • Enzyme activity was stopped by adding 2 μl of buffer one of the EPIgeneous methyltransferase assay. • After 10 minutes at room temperature, it was added 4 μl of antibody specific to S-adenosylhomocysteine labeled with Lumi4-Tb 50× diluted in buffer two of the EPIgeneous methyltransferase assay. • Add 4 μl of d2-labeled S-adenosylhomocysteine 31× diluted in buffer two of the EPIgeneous methyltransferase assay. • Read the plate after 1 hour of incubation at room temperature.
as §1

[3] = tested on: CEMO-1 cells (acute lymphocytic leukemia, ALL); assay: Cell proliferation assay (CellTiter 96 Aqueous One), CEMO-1; type: cell-based; settings: CEMO-1 (ALL), 48 hours of treatment
Procedure: (§2) Cell proliferation was analyzed after 48 hours of in vitro treatment using the CellTiter 96 Aqueous One Solution Cell Proliferation Assay (Promega, Madison, W). This is a colorimetric method for determining the number of viable cells in proliferation.
(§3) For the assay, suspension cells were cultured by triplicate at a density of 1×10^6 cells/ml in 96-well plates (100.000 cells/well, 100 μl/well), except for OCI-Ly3 and OCI-Ly10 cell lines which were cultured at a density of 0.5×10^6 cells/ml (50,000 cells/well, 100 μl/well) and for HepG2, Hep3B and PLC/PRF/5 cell lines which were cultured at a density of 3000 cells/well, 100 μl/well). Adherent cells were obtained from 80-90% confluent flasks and 100 μl of cells were seeded at a density of 5000 cells/well in 96-well plates by triplicate. Before addition of the compounds, adherent cells were allowed to attach to the bottom of the wells for 12 hours. In all cases, only the 60 inner wells were used to avoid any border effects.
(§4) After 48 hours of treatment, plates with suspension cells were centrifuged at 800 g for 10 minutes and medium was removed. The plates with adherent cells were flicked to remove medium. Then, cells were incubated with 100 μl/well of medium and 20 μl/well of CellTiter 96 Aqueous One Solution reagent. After 1-3 hours of incubation at 37° C., absorbance was measured at 490 nm in a 96-well plate reader. The background absorbance was measured in wells with only cell line medium and solution reagent. Data was calculated as a percentage of total absorbance of treated cell/absorbance of non treated cells.
(§5) These cancer cell lines and primary cultures correspond to acute lymphocytic leukemia (ALL), CEMO-1, to activated B-cell-like diffuse large B-cell lymphoma (ABC-DLBCL), OCI-Ly3 and OCI-Ly10 and to hepatocellular carcinoma cells (HCC), HepG2, Hep3B and PLC/PRF/5.

[4] = tested on: OCI-Ly3 cells (ABC-DLBCL); assay: Cell proliferation assay (CellTiter 96 Aqueous One), OCI-Ly3; type: cell-based; settings: Homo sapiens, 48 hours of treatment
Procedure: as §2
as §3, with “In all cases, only the 60 inner wells were used to avoid any border effects.” left out
as §4, with “The plates with adherent cells were flicked to remove medium. Then, cells were incubated with 100 μl/well of medium and 20 μl/well of CellTiter 96 Aqueous One Solution reagent.” left out, “cells. […]” for “cells.”

[5] = tested on: OCI-Ly10 cells (ABC-DLBCL); assay: Cell proliferation assay (CellTiter 96 Aqueous One), OCI-Ly10; type: cell-based; settings: Homo sapiens, 48 hours of treatment
Procedure: as §2
as §3, with “In all cases, only the 60 inner wells were used to avoid any border effects.” left out
as §4, with “The plates with adherent cells were flicked to remove medium. Then, cells were incubated with 100 μl/well of medium and 20 μl/well of CellTiter 96 Aqueous One Solution reagent.” left out, “cells. […]” for “cells.”

[6] = tested on: HepG2 cells (hepatocellular carcinoma); assay: Cell proliferation assay (CellTiter 96 Aqueous One), HepG2; type: cell-based; settings: HepG2 (HCC), 48 hours of treatment
Procedure: as §2, §3, §4, §5

[7] = tested on: Hep3B cells (hepatocellular carcinoma); assay: Cell proliferation assay (CellTiter 96 Aqueous One), Hep3B; type: cell-based; settings: Hep3B (HCC), 48 hours of treatment
Procedure: as §2, §3, §4, §5

[8] = tested on: PLC/PRF/5 cells (hepatocellular carcinoma); assay: Cell proliferation assay (CellTiter 96 Aqueous One), PLC/PRF/5; type: cell-based; settings: PLC/PRF/5 (HCC), 48 hours of treatment
Procedure: as §2, §3, §4, §5

human DNMT1, sequence (P26358 whole entry): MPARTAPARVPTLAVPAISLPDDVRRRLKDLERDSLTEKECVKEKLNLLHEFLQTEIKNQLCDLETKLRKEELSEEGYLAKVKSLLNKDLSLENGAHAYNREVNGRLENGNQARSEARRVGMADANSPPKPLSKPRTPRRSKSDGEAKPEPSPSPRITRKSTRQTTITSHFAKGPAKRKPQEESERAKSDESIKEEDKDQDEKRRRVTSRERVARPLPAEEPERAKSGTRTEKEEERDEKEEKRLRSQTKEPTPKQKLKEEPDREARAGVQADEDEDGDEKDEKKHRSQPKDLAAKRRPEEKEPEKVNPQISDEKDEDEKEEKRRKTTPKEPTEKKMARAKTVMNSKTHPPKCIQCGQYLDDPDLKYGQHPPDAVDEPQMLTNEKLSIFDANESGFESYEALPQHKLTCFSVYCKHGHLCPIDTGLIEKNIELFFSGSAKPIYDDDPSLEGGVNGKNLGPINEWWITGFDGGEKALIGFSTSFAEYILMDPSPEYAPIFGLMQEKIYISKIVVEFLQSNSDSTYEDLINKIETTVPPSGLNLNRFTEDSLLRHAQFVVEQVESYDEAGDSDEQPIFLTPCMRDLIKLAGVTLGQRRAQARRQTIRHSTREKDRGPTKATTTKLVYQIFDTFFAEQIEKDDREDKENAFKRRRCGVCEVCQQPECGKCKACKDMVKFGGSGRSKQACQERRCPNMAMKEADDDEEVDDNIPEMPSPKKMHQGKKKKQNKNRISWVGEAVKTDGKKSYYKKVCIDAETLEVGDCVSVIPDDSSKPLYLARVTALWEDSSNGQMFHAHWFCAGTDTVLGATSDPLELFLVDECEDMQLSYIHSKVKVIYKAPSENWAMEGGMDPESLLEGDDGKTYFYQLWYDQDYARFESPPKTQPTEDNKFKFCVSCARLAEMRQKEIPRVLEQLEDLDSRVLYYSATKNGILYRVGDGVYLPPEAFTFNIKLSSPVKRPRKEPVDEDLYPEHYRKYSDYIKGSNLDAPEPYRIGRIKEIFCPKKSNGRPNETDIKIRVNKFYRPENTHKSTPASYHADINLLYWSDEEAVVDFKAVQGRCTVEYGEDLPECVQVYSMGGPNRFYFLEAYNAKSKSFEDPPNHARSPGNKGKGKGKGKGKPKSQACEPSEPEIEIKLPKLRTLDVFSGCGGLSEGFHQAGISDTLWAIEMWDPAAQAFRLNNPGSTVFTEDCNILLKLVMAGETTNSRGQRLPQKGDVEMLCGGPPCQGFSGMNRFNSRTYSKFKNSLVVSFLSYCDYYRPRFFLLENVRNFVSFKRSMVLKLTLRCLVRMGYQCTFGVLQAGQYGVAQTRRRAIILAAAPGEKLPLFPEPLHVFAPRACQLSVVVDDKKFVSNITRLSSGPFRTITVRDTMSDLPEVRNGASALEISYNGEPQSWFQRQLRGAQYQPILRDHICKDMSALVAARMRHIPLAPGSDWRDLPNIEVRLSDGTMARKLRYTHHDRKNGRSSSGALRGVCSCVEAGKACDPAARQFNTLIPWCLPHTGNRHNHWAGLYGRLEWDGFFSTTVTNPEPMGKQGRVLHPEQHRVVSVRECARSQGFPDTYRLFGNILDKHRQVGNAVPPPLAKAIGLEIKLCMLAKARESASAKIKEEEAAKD
human G9a enzyme, sequence (Q96KQ7 whole entry): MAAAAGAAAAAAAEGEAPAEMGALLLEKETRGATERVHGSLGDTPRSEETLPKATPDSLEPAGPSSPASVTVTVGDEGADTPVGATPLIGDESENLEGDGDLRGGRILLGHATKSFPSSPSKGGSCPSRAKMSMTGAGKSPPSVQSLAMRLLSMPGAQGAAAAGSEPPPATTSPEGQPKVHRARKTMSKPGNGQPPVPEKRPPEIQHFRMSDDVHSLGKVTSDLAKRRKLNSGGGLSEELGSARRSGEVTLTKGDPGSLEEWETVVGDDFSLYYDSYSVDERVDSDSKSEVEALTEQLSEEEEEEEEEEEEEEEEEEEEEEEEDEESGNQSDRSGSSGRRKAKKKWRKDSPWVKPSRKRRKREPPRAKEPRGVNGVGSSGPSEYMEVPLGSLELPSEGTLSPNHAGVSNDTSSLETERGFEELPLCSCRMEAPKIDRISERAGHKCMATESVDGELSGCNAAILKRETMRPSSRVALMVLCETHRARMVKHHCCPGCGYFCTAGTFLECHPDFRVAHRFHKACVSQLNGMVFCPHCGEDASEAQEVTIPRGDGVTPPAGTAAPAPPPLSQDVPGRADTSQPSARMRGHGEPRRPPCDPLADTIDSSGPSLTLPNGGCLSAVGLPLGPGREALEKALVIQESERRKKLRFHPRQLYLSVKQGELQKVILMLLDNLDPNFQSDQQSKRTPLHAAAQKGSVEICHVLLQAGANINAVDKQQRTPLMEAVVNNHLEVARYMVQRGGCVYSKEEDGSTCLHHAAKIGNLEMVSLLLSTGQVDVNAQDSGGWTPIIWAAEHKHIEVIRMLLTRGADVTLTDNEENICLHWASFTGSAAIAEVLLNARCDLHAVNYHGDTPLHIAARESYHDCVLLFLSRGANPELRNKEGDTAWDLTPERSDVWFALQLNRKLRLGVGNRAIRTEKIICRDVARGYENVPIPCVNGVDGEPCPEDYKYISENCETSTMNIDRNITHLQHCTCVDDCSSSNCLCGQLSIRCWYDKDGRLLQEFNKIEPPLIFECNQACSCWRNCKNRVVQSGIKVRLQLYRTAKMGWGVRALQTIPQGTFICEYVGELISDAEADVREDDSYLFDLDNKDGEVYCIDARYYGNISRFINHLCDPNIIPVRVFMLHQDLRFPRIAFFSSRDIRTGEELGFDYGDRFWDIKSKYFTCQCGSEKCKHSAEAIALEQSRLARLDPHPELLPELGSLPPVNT

Structure (SMILES)	IC50 [1] [nM]	IC50 [2] [nM]	GI50 [3] [nM]	GI50 [4] [nM]	GI50 [5] [nM]	GI50 ([6]; Homo sapiens) [nM]	GI50 ([7]; Homo sapiens) [nM]	GI50 ([8]; Homo sapiens) [nM]	GI50 [6] [nM]	GI50 [7] [nM]	GI50 [8] [nM]
COc1cc2c(cc1OCCCN1CCCC1)nc(-c1ccc(C)o1)c1cc(CC3CCN(C)CC3)[nH]c12 [Compound 1-02, 8-methoxy-4-(5-methyl-2-furyl)-2-[(1-methyl-4-piperidyl)methyl]-7-(3-pyrrolidin-1-ylpropoxy)-1H-pyrrolo[3,2-c]quinoline]	100 to 500	100 to 500	100 to 1000	100 to 1000	1000 to 10000	1000 to 10000	1000 to 10000	100 to 1000	–	–	–
COc1cc2c(cc1OCCCN1CCCC1)nc(-c1ccc(C)o1)c1cc(CC3CCN(C(C)C)CC3)[nH]c12 [Compound 1-03, 2-[(1-isopropyl-4-piperidyl)methyl]-8-methoxy-4-(5-methyl-2-furyl)-7-(3-pyrrolidin-1-ylpropoxy)-1H-pyrrolo[3,2-c]quinoline]	100 to 500	500 to 1000	1000 to 10000	–	–	1000 to 10000	1000 to 10000	100 to 1000	–	–	–
CCc1ccc(-c2nc3cc(OCCCN4CCCC4)c(OC)cc3c3[nH]c(CC4CCN(C)CC4)cc23)o1 [Compound 1-04]	100 to 500	500 to 1000	100 to 1000	–	–	–	–	–	1000 to 10000	1000 to 10000	100 to 1000
COc1cc2c3c(c(-c4ccc(C)o4)nc2cc1OCCCN1CCCC1)CCC(CC1CCN(C)CC1)N3 (centres unmarked) [Compound 2-06, 9-methoxy-5-(5-methyl-2-furyl)-2-[(1-methyl-4-piperidyl)methyl]-8-(3-pyrrolidin-1-ylpropoxy)-1,2,3,4-tetrahydrobenzo[h][1,6]naphthyridine]	< 100	100 to 500	1000 to 10000	–	–	≥ 10000	≥ 10000	1000 to 10000	–	–	–
COc1cc2c3c(c(-c4ccc(C)o4)nc2cc1OCCCN1CCCC1)CCC(CC1CCN(C2CC2)CC1)N3 (centres unmarked) [Compound 2-07, 2-[(1-cyclopropyl-4-piperidyl)methyl]-9-methoxy-5-(5-methyl-2-furyl)-8-(3-pyrrolidin-1-ylpropoxy)-1,2,3,4-tetrahydrobenzo[h][1,6]naphthyridine]	< 100	500 to 1000	1000 to 10000	–	–	1000 to 10000	1000 to 10000	1000 to 10000	–	–	–
COc1cc2c3c(c(-c4ccc(C)o4)nc2cc1OCCCN1CCCC1)CCC(CC1CCN(C(C)C)CC1)N3 (centres unmarked) [Compound 2-08, 2-[(1-isopropyl-4-piperidyl)methyl]-9-methoxy-5-(5-methyl-2-furyl)-8-(3-pyrrolidin-1-ylpropoxy)-1,2,3,4-tetrahydrobenzo[h][1,6]naphthyridine]	< 100	500 to 1000	1000 to 10000	–	–	1000 to 10000	1000 to 10000	1000 to 10000	–	–	–
